Assay results taken from ChEMBL document CHEMBL5214978, “Identification of 1,4-Benzodiazepine-2,5-dione Derivatives as Potential Protein Synthesis Inhibitors with Highly Potent Anticancer Activity” (J Med Chem, 2022).

Assays:
Type in all cases: functional
A549 = test: Anticancer activity against human A549 cells assessed as cell growth inhibition measured after 48 hrs by SRB assay
HCT-116 = test: Anticancer activity against human HCT-116 cells assessed as cell growth inhibition measured after 48 hrs by SRB assay
SF-295 = test: Anticancer activity against human SF-295 cells assessed as cell growth inhibition measured after 48 hrs by SRB assay
LOX IMVI = test: Anticancer activity against human LOX IMVI cells assessed as cell growth inhibition measured after 48 hrs by SRB assay
786-0 = test: Anticancer activity against human 786-0 cells assessed as cell growth inhibition measured after 48 hrs by SRB assay
[1] = tested on: Panel NCI-60 (60 carcinoma cell lines); test: Anticancer activity against human Panel NCI-60 (60 carcinoma cell lines) line assessed as cell growth inhibition measured after 48 hrs by SRB assay

Row | GI50 (A549) [nM] | GI50 (HCT-116) [nM] | GI50 (786-0) [nM] | SMILES | GI50 (SF-295) [nM] | GI50 (LOX IMVI) [nM] | GI50 [1] [nM]
1 | > 50000 | > 50000 | > 50000 | COC(=O)C[C@@H]1NC(=O)c2cc(Oc3cc(Cl)cc(Cl)c3)c(NC(=O)c3cc(OC)c(OC)c(OC)c3)cc2NC1=O | > 50000 | > 50000 | > 50000
2 | 360 | 460 | 360 | CCCCN(CCCC)C(=O)C[C@@H]1NC(=O)c2cc(Oc3cc(C)cc(C)c3)c(NC(=O)c3cc(OC)c(OC)c(OC)c3)cc2NC1=O | 320 | 340 | 
3 | > 50000 | > 50000 | > 50000 | COc1cc(C(=O)Nc2cc3c(cc2Oc2cc(C)cc(C)c2)C(=O)N[C@@H](CC(=O)O)C(=O)N3)cc(OC)c1OC | > 50000 | > 50000 | > 50000
4 | > 50000 | > 50000 | > 50000 | COC(=O)C[C@@H]1NC(=O)c2cc(C#Cc3cc(C)cc(C)c3)c(NC(=O)c3cc(OC)c(OC)c(OC)c3)cc2NC1=O | > 50000 | > 50000 | > 50000
5 | 148 | 145 | 158 | CCN(CC)C(=O)C[C@H]1C(=O)Nc2cc(NC(=O)c3cc(OC)c(OC)c(OC)c3)c(Oc3cc(C)cc(C)c3)cc2C(=O)N1CC | 118 | 134 | 69
6 | > 50000 | > 50000 | > 50000 | COC(=O)C[C@@H]1NC(=O)c2cc(-c3cc(C)cc(C)c3)c(NC(=O)c3cc(OC)c(OC)c(OC)c3)cc2NC1=O | > 50000 | > 50000 | > 50000
7 | 470 | 90 | 36000 | COc1cc(C(=O)Nc2cc3c(cc2Oc2cc(C)cc(C)c2)C(=O)N[C@@H](Cc2ncnn2C)C(=O)N3)cc(OC)c1OC | 180 | 70 | 160
8 | 140 | 260 | 720 | CCc1noc(C[C@@H]2NC(=O)c3cc(Oc4cc(C)cc(C)c4)c(NC(=O)c4cc(OC)c(OC)c(OC)c4)cc3NC2=O)n1 | 110 | 130 | 270
9 | 17 | 21 | 41 | CCN(CC)C(=O)C[C@H]1C(=O)Nc2cc(NC(=O)c3cc(OC)c(OC)c(OC)c3)c(Oc3cc(C)cc(C)c3)cc2C(=O)N1C | 10 | 18 | 23
10 | 1520 | 2010 | 2400 | COC(=O)C[C@@H]1NC(=O)c2cc(Oc3ccc(C)c(C)c3)c(NC(=O)c3cc(OC)c(OC)c(OC)c3)cc2NC1=O | 1010 | 2550 | 1910
11 | > 50000 | > 50000 | > 50000 | COC(=O)C[C@@H]1NC(=O)c2cc(OC)c(NC(=O)c3cc(OC)c(OC)c(OC)c3)cc2NC1=O | > 50000 | > 50000 | > 50000
12 | > 50000 | > 50000 | > 50000 | COC(=O)C[C@@H]1NC(=O)c2cc(Oc3ccc(OC)cc3)c(NC(=O)c3cc(OC)c(OC)c(OC)c3)cc2NC1=O | > 50000 | > 50000 | > 50000
13 | 20 | 20 | 90 | CCN(CC)C(=O)C[C@@H]1NC(=O)c2cc(Oc3cc(C)cc(C)c3)c(NC(=O)c3cc(OC)c(OC)c(OC)c3)cc2NC1=O | 20 | 20 | 30
14 | > 50000 | > 50000 | > 50000 | COC(=O)C[C@H]1NC(=O)c2cc(Oc3cc(C)cc(C)c3)c(NC(=O)c3cc(OC)c(OC)c(OC)c3)cc2NC1=O | > 50000 | > 50000 | > 50000
15 | > 50000 | > 50000 | > 50000 | COC(=O)C[C@@H]1NC(=O)c2cc(Oc3ccccc3)c(NC(=O)c3cc(OC)c(OC)c(OC)c3)cc2NC1=O | > 50000 | > 50000 | > 50000
16 | 9 | 13 | 10 | CCN(CC)C(=O)C[C@H]1C(=O)Nc2cc(NC(=O)c3cc(OC)c(OC)c(OC)c3Cl)c(Oc3cc(C)cc(C)c3)cc2C(=O)N1C | 12 | < 5 | 17
17 | 1400 | 1710 | 2130 | COC(=O)C[C@@H]1NC(=O)c2cc(Oc3ccc4c(c3)CCC4)c(NC(=O)c3cc(OC)c(OC)c(OC)c3)cc2NC1=O | 990 | 1930 | 1860
18 | 21 | 22 | 30 | CCN(CC)C(=O)C[C@H]1C(=O)Nc2cc(NC(=O)c3cc(OC)c(OC)c(OC)c3Cl)c(Oc3cc(C)c(F)c(C)c3)cc2C(=O)N1C | 19 | 9 | 18
19 | > 50000 | > 50000 | > 50000 | CCOC(=O)C1NC(=O)c2cc(Oc3cc(C)cc(C)c3)c(NC(=O)c3cc(OC)c(OC)c(OC)c3)cc2NC1=O (configuration not stated) | > 50000 | > 50000 | > 50000

Row | GI50 (A549) [nM] | GI50 (HCT-116) [nM] | GI50 (786-0) [nM] | SMILES | GI50 (SF-295) [nM] | GI50 (LOX IMVI) [nM] | GI50 [1] [nM]
20 | 26 | 17 | 61 | CCN(CC)C(=O)C[C@@H]1NC(=O)c2cc(Oc3cc(C)c(F)c(C)c3)c(NC(=O)c3cc(OC)c(OC)c(OC)c3Cl)cc2NC1=O | 27 | 8 | 16
21 | > 50000 | 50000 | > 50000 | CCN(CC)C(=O)C[C@@H]1NC(=O)c2cc(Oc3cc(C)cc(C)c3)c(N(C)C(=O)c3cc(OC)c(OC)c(OC)c3)cc2NC1=O | > 50000 | > 50000 | > 50000
22 | 150 | 200 | 150 | COC(=O)C[C@@H]1NC(=O)c2cc(Oc3cc(C)cc(C)c3)c(NC(=O)c3cc(OC)cc(OC)c3)cc2NC1=O | 80 | 240 | 240
23 | > 50000 | > 50000 | > 50000 | COC(=O)C[C@@H]1NC(=O)c2cc(Oc3ccc(F)cc3)c(NC(=O)c3cc(OC)c(OC)c(OC)c3)cc2NC1=O | > 50000 | > 50000 | > 50000
24 | 3970 | 790 | 3450 | COc1cc(C(=O)Nc2cc3c(cc2Oc2cc(C)cc(C)c2)C(=O)N[C@@H](CC(N)=O)C(=O)N3)cc(OC)c1OC | 2010 | 350 | 1120
25 | 17 | < 13 | 40 | CCN(CC)C(=O)C[C@@H]1NC(=O)c2cc(Oc3cc(C)cc(C)c3)c(NC(=O)c3cc(OC)c(OC)c(OC)c3Cl)cc2NC1=O | 23 | < 5 | 
26 | 140 | 30 |  | COc1cc(C(=O)Nc2cc3c(cc2Oc2cc(C)cc(C)c2)C(=O)N[C@@H](CC(=O)N(C)C)C(=O)N3)cc(OC)c1OC | 110 | 20 | 60
27 | > 50000 | > 50000 | > 50000 | COC(=O)C[C@@H]1NC(=O)c2cc(Oc3ccc(C(F)(F)F)cc3)c(NC(=O)c3cc(OC)c(OC)c(OC)c3)cc2NC1=O | > 50000 | > 50000 | > 50000
28 | 3410 | 5250 | 14900 | COC(=O)C[C@@H]1NC(=O)c2cc(Oc3cccc(N(C)C)c3)c(NC(=O)c3cc(OC)c(OC)c(OC)c3)cc2NC1=O | 3090 | 5260 | 4680
29 | 140 | 160 | 160 | COC(=O)C[C@@H]1NC(=O)c2cc(Oc3cc(C)cc(F)c3)c(NC(=O)c3cc(OC)c(OC)c(OC)c3)cc2NC1=O | 150 | 190 | 180
30 | 1260 | 2080 | 1860 | COC(=O)CC[C@@H]1NC(=O)c2cc(Oc3cc(C)cc(C)c3)c(NC(=O)c3cc(OC)c(OC)c(OC)c3)cc2NC1=O | 1100 | 1920 | 1200
31 | > 50000 | > 50000 | > 50000 | CCN(CC)C(=O)C[C@@H]1NC(=O)c2cc(Oc3cc(C)cc(C)c3)c(NC(=O)c3cc(OC)c(OC)c(OC)c3)cc2N(C)C1=O | > 50000 | > 50000 | > 50000
32 | > 50000 | > 50000 | > 50000 | COC(=O)C[C@@H]1NC(=O)c2cc(Oc3cc(C)cc(C)c3)c(NC(=O)c3ccco3)cc2NC1=O | > 50000 | > 50000 | > 50000
33 | 1380 | 1260 | 1420 | COc1cc(C(=O)Nc2cc3c(cc2Oc2cc(C)cc(C)c2)C(=O)N[C@@H](Cc2nnc(C)o2)C(=O)N3)cc(OC)c1OC | 940 | 1280 | 1580
34 | 180 | 140 | 1570 | COc1cc(C(=O)Nc2cc3c(cc2Oc2cc(C)cc(C)c2)C(=O)N[C@@H](CC(=O)N2CCN(C)CC2)C(=O)N3)cc(OC)c1OC | 670 | 90 | 1580
35 | 70 | 30 | 70 | COC(=O)C[C@@H]1NC(=O)c2cc(Oc3cc(C)cc(C)c3)c(NC(=O)c3cc(OC)c(OC)c(OC)c3)cc2NC1=O | 70 | 20 | 50
36 | 243 | 172 | 1000 | CCN(CC)C(=O)C[C@@H]1NC(=O)c2cc(Oc3cc(C)c(Br)c(C)c3)c(NC(=O)c3cc(OC)c(OC)c(OC)c3)cc2NC1=O |  | 128 | 234
37 | 1860 | 510 | 1910 | CCCCOC(=O)C[C@@H]1NC(=O)c2cc(Oc3cc(C)cc(C)c3)c(NC(=O)c3cc(OC)c(OC)c(OC)c3)cc2NC1=O | 1910 | 3980 | 
